These results are taken from ChEMBL document CHEMBL1136094, “Novel, potent and selective cyclin D1/CDK4 inhibitors: indolo[6,7-a]pyrrolo[3,4-c]carbazoles” (Bioorg Med Chem Lett, 2003).

Values after ≈ are worked out from the molar mass of the structure shown. Values joined by “and” are separate entries in the source; they are usually repeats but may differ in a detail not shown here. Identical values can stand only once.

Series [1] deals with T1, Cyclin-dependent kinase 4/cyclin D1 (Homo sapiens, UniProt P11802). Put plainly: Inhibitory activity against Cyclin D1-cyclin-dependent kinase 4 in enzymatic assay by measuring phosphorylation of Rb21. The format is protein-complex assay.
Series [2] concerns the target Cyclin-dependent kinase 2/cyclin E (Homo sapiens, UniProt P24941). As to the kind of experiment: Inhibitory activity against Cyclin E-cyclin-dependent kinase 2 in enzymatic assay by measuring phosphorylation of RbING. The format is protein-complex assay.
For series [3], the system named is HCT-116. As to the kind of experiment: GI arrest (1 fold increase over control) in HCT116 cells was determined by flow cytometry after 24 hr incubation. The format is functional, Homo sapiens. For orientation: Flow cytometry measures light scatter and fluorescence of single cells or particles in a stream.
The test system of series [4] is HCT-116. Put plainly: In vitro antiproliferative activity against human carcinoma cell line HCT116 (colon). It counts as functional, cell-based.
Series [5] concerns the target T1, Cyclin-dependent kinase 4/cyclin D1. Put plainly: Inhibitory activity against Cyclin D1-cyclin-dependent kinase 4 in enzymatic assay by measuring phosphorylation of RbING. It counts as protein-complex assay.
The next series deals with NCI-H460. Put plainly: In vitro antiproliferative activity against human carcinoma cell line H460 (lung). The format is functional, cell-based.
For series [6], the target named is Cyclin-dependent kinase 4 (Homo sapiens) (UniProt P11802). Put plainly: Inhibition of Rb phosphorylation at the CDK4 specific Ser780 residue (1 fold increase over control) after 24 hr incubation in HCT116 cells. To be noted: HCT-116, concentration not given here. The format is functional, cell-based.
Series [7] concerns HCT-116. As to the kind of experiment: GI arrest (3 fold increase over control) in HCT116 cells was determined by flow cytometry after 24 hr incubation. The format is functional, Homo sapiens.
Series [8] has as its target Cyclin-dependent kinase 4 (Homo sapiens) (UniProt P11802). Put plainly: Inhibition of Rb phosphorylation at the CDK4 specific Ser780 residue (3 fold increase over control) after 24 hr incubation in HCT116 cells. It counts as functional, cell-based. To be noted: HCT-116, concentration not given here.
Series [9] has as its target cAMP-dependent protein kinase (PKA) (Homo sapiens, UniProt P22694+P17612+P22612). Put plainly: Inhibitory activity against Protein kinase A (Histone). The format is protein assay.
Series [10] has as its system HCT-116. As to the kind of experiment: Flow cytometry of HCT116 cells, G1 arrest (2.6 fold increase over control) after 24 hr r. The format is functional, Homo sapiens.
Another series addresses CaM kinase II (Homo sapiens, UniProt Q13557+Q13555+Q13554+Q9UQM7). Put plainly: Inhibitory activity against Calcium/calmodulin-dependent protein kinase type II. It counts as protein assay.
A short description of series [11]: Aqueous solubility (in situ) in D5W after 1 week was determined. The format is physicochemical. To be noted: D5W.
Series [12] concerns the target Cyclin-dependent kinase 2/cyclin E1 (Homo sapiens, UniProt P24941). Put plainly: Inhibition of RbING phosphorylation by Cyclin E1-cyclin-dependent kinase 2. It counts as protein-complex assay.

Sequence of Cyclin-dependent kinase 4 (Homo sapiens) (P11802 whole entry): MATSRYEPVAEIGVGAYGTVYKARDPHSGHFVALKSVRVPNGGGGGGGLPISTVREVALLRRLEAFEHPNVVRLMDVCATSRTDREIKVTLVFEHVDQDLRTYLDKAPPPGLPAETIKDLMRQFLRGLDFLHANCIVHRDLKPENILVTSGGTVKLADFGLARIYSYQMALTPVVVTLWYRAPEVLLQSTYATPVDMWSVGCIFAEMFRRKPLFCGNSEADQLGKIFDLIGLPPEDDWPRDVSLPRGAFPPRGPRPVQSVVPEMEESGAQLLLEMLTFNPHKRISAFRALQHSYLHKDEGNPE
T1 sequence (P11802 whole entry): as above
T1 sequence (P24385 whole entry, further chain): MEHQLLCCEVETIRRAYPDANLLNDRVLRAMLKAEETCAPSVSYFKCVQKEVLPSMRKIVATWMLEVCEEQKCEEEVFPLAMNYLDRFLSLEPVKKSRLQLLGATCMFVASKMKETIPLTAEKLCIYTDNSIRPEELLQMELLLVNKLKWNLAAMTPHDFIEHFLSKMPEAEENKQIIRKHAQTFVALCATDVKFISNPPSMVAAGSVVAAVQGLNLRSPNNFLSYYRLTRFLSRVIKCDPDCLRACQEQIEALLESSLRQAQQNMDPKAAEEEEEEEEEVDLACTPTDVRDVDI

For the compound `COc1cc2ccn(C)c2c2c3c(c4c5ccccc5[nH]c4c12)C(=O)NC3=O`, the IC50 in series [1] was found to be 0.018 µM; in series [2] it was 0.067 µM; with HCT-116 [4] it was 1.9 µM; in series [5], 0.032 µM; with NCI-H460 it was 0.69 µM. Moreover, the Fold increase is given as 1.8 in the series on HCT-116 [3] and 2.1 in the series on HCT-116 [7]. The inhibition in [6] came out at 56%; in series [8], 77%.
In the case of `Cn1ccc2ccc3c4[nH]c5c(CCN6CCOCC6)cccc5c4c4c(c3c21)C(=O)NC4=O` [listing 1 of 2 here], the inhibition in [6] was 57% and 69%; in series [8] it was 88% and 80%.
On to `Cl.Cn1ccc2ccc3c4[nH]c5c(CCN6CCOCC6)cccc5c4c4c(c3c21)C(=O)NC4=O`, for which the Fold increase is listed as 1.2 in the series on HCT-116 [3] and 2.3 in the series with HCT-116 [7].
Regarding `Cn1ccc2ccc3c4[nH]c5c(CCN6CCC[C@H]6CO)cccc5c4c4c(c3c21)C(=O)NC4=O`, the inhibition in series [6] came out at 65%; in series [8] it was 73%.
Turning to `COc1ccc2c3c4c(c5c(ccc6ccn(C)c65)c3n(CCCN3CCC(C(N)=O)CC3)c2c1)C(=O)NC4=O`, the IC50 amounted to 0.013 µM in series [1]; 1 µM in series [2]; 1.96 µM in the series with HCT-116 [4]; 0.077 µM in [5]; 2.44 µM in the series on NCI-H460; 3.38 µM in [9]. On CaM kinase II, the IC50 worked out at 3.05 µM. Moreover, the results for the Fold increase in the series on HCT-116 [3] and in the series on HCT-116 [10] were 1.9 and 2.5, respectively. Moreover, the values for the inhibition in series [6] and in series [8] were 58% and 67%, respectively.
In the case of `Cn1ccc2ccc3c4[nH]c5c(CCN6CCC(O)CC6)cccc5c4c4c(c3c21)C(=O)NC4=O`, the values for the inhibition in series [6] and in series [8] were 68% and 69%, respectively.
Regarding `Cn1ccc2ccc3c4[nH]c5c(CCN6CCC(O)CC6)cccc5c4c4c(c3c21)C(=O)NC4=O.O=C(O)C(F)(F)F`, in the series with HCT-116 [3], the Fold increase stood at 1.8.
For `COc1ccc2c3c4c(c5c(ccc6ccn(C)c65)c3n(CCCNCCO)c2c1)C(=O)NC4=O`, the IC50 in [1] worked out at 0.028 µM; in [2], 0.432 µM; in the series with HCT-116 [4] it was 1.55 µM; in [5], 0.072 µM; in the series with NCI-H460, 1.28 µM; in series [9], 3.15 µM. Besides, on CaM kinase II, the IC50 is 0.732 µM. Also, the Fold increase worked out at 1.8 in the series with HCT-116 [3] and 2.7 in the series with HCT-116 [7]. Also, the concentration in solution in [11] (solubility at 168 h) was 8600 µg/mL (≈ 18.3 mM). Besides, the figures for the inhibition in [6] and in series [8] were 57% and 78%, respectively.
Turning to `Cn1ccc2ccc3c4[nH]c5cc(O)ccc5c4c4c(c3c21)C(=O)NC4=O`, the IC50 in series [1] amounted to 0.009 µM; in the series on HCT-116 [4], 0.67 µM; in [5], 0.033 µM; with NCI-H460, 1.08 µM; in [9], 2.35 µM. Moreover, the Fold increase in the series on HCT-116 [3] came out at 2.2. Also, the figures for the inhibition in [6] and in series [8] were 37% and 95%, respectively.
As to `Cn1ccc2ccc3c4[nH]c5c(CCN6CCOCC6)cccc5c4c4c(c3c21)C(=O)NC4=O` [listing 2 of 2 here], the IC50 in [1] was 0.015 µM; in [2], 1.28 µM; with HCT-116 [4], 1.63 µM; in [5], 0.054 µM; in the series on NCI-H460, 1.91 µM; in series [9], > 20 µM. At CaM kinase II, the IC50 amounted to 0.177 µM. For the same compound, the Fold increase is reported as 1.5 in the series on HCT-116 [3] and 2.2 in the series with HCT-116 [7]. In series [11], the solubility at 168 h was determined as 8700 µg/mL (≈ 19.2 mM).
For the compound `COc1ccc2c3c4c(c5c(ccc6ccn(C)c65)c3n(CCCO)c2c1)C(=O)NC4=O`, the IC50 in [1] was determined as 0.012 µM; in [2], 0.113 µM; in the series with HCT-116 [4], 1.62 µM; in series [5], 0.054 µM; with NCI-H460, 0.5 µM; in [9], 1.04 µM. In the series on HCT-116 [3], the Fold increase came out at 2.4. Moreover, the inhibition in series [6] is 66%; in series [8], 95%.
As to `COc1ccc2c3c4c(c5c(ccc6ccn(C)c65)c3n(CCNCCO)c2c1)C(=O)NC4=O`, the IC50 worked out at 0.021 µM in [1]; 0.089 µM in [2]; 1.47 µM in the series with HCT-116 [4]; 0.035 µM in series [5]; 1.31 µM with NCI-H460; 3.74 µM in series [9]. Besides, the IC50 on CaM kinase II was determined as 0.527 µM. Moreover, the Fold increase in the series on HCT-116 [3] is given as 3.1. The amount in solution in series [11] (solubility at 168 h) came to 6000 µg/mL (≈ 13.1 mM). The inhibition came to 71% in series [6] and 92% in series [8].
As for `Cn1ccc2ccc3c4[nH]c5c(CCN6CCC(C(N)=O)CC6)cccc5c4c4c(c3c21)C(=O)NC4=O`, the IC50 was 0.005 µM in [1]; 0.796 µM in series [2]; 1 µM with HCT-116 [4]; 0.051 µM in series [5]; 1.35 µM in the series on NCI-H460; 5.89 µM in series [9]. Moreover, the IC50 at CaM kinase II was 0.025 µM. Further, the Fold increase is given as 1.9 in the series with HCT-116 [3] and 2.2 in the series with HCT-116 [7]. Further, the inhibition was 52% in series [6] and 55% in series [8].
In turn, `Cn1ccc2ccc3c4[nH]c5c(CCN6CCC[C@H]6CO)cccc5c4c4c(c3c21)C(=O)NC4=O.O=C(O)C(F)(F)F` displayed a Fold increase in the series with HCT-116 [3] of 1.5.
`COc1ccc2c(c1)[nH]c1c3ccc4ccn(C)c4c3c3c(c21)C(=O)NC3=O`: the concentration for half-maximal inhibition (IC50) was 0.006 µM in [1]; 0.112 µM in series [2]; 1.8 µM in the series on HCT-116 [4]; 0.053 µM in series [5]; 1.09 µM in the series on NCI-H460; > 20 µM in [9]. The Fold increase in the series with HCT-116 [3] amounted to 2.6. Besides, the inhibition stood at 90% in [6] and 97% in series [8].
Take `COc1cc2c3[nH]c4ccccc4c3c3c(c2c2c1ccn2C)C(=O)NC3=O`: the Fold increase stood at 1.2 with HCT-116 [3] and 2.2 in the series on HCT-116 [7]. The IC50 in series [12] turned out to be 0.035 µM; in the series with HCT-116 [4], 1.13 µM; in series [5], 0.054 µM; with NCI-H460, 0.71 µM; in series [9], 13.2 µM. The inhibition in series [6] was found to be 71%; in [8] it was 86%.
Take `Cn1ccc2ccc3c4[nH]c5c(CCN6CCCCC6)cccc5c4c4c(c3c21)C(=O)NC4=O`: the IC50 stood at 1.06 µM in series [2]; 2.12 µM with HCT-116 [4]; 0.045 µM in [5]; 2.47 µM with NCI-H460; 9.14 µM in series [9]; 0.062 µM at CaM kinase II. In addition, the Fold increase in the series on HCT-116 [3] was 1.8; with HCT-116 [7] it was 2.1. The compound further had a solubility at 168 h in series [11] of 8500 µg/mL (≈ 18.9 mM). The inhibition in [6] was 69%; in series [8], 78%.
Take `Cn1ccc2ccc3c4[nH]c5c(CCN[C@H]6CC[C@H](O)CC6)cccc5c4c4c(c3c21)C(=O)NC4=O`: the IC50 is 0.005 µM in [1]; 0.45 µM in series [2]; 1.23 µM in the series with HCT-116 [4]; 0.053 µM in series [5]; 2.82 µM with NCI-H460; 9.81 µM in series [9]. Besides, at CaM kinase II, the IC50 amounted to 0.049 µM. The Fold increase in the series on HCT-116 [3] came out at 2. The inhibition in [6] worked out at 78%; in series [8], 87%.

A word on the IC50: it is the concentration that gives 50% inhibition. A word on the inhibition: it is the change of the read-out against control, counted positive when it falls. The low end stands for a weak effect, the high end for a strong effect. A word on the solubility: it is how much of the substance goes into solution per volume. A lower solubility goes with a poorly soluble substance.
